Results reported in article PMC7161086 (Peptides, 2019).

Tests used:
[1] = test system: Acinetobacter baumannii ATCC 19606; test: MIC, additional antimicrobial activities; type: cell-based
[2] = test system: Escherichia coli ATCC 25922; test: MIC, additional antimicrobial activities; type: cell-based
[3] = test system: Klebsiella pneumoniae ATCC 700603
[4] = test system: Candida albicans ATCC 90028; test: MIC, additional antimicrobial activities; type: cell-based
[5] = test system: Cryptococcus neoformans var. grubii H99 ATCC 20882; test: MIC, additional antimicrobial activities; type: cell-based
[6] = test system: HEK-293 human embryonic kidney cells (ATCC CRL-1573); test: Cytotoxicity, resazurin test; type: cell-based; conditions: performed by CO-ADD
[7] = test system: Staphylococcus aureus ATCC 43300 MRSA; test: MIC, additional antimicrobial activities; type: cell-based; conditions: for Minimal inhibitory concentration (MIC) Sa: Staphylococcus aureus ATCC 43300 MRSA
[8] = test system: Psedomonas aeruginosa ATCC 27853; test: MIC, additional antimicrobial activities; type: cell-based
[9] = test system: Staphylococcus aureus JE2 MRSA; test: MIC assay, broth microdilution; type: cell-based
human red blood cells = type: cell-based
Escherichia coli K12 = test: MIC assay, broth microdilution; type: cell-based; conditions: 37 °C, 24 h, MHB

Substance	Minimal inhibitory concentration (MIC) Ab [1] [µg/mL]	Minimal inhibitory concentration (MIC) Ec [2] [µg/mL]	Minimal inhibitory concentration (MIC) Kp [3] [µg/mL]	Minimal inhibitory concentration (MIC) Ca [4] [µg/mL]	Minimal inhibitory concentration (MIC) Cn [5] [µg/mL]	IC50 HEK-293 [6] [µg/mL]	Minimal inhibitory concentration (MIC) Sa [7] [µg/mL]	Minimal inhibitory concentration (MIC) Pa [8] [µg/mL]	Minimal inhibitory concentration (MIC) Sa ([9]; Staphylococcus aureus JE2 MRSA, 37 °C, 24 h, MHB) [µg/mL]	fold increase in activity (decrease of MIC) against S. aureus ([9]; relative to Cit 1.1) [fold]	HC50 Human red blood cells (human red blood cells) [µg/mL]	Minimal inhibitory concentration (MIC) Ec (Escherichia coli K12) [µg/mL]	fold increase in activity (decrease of MIC) against MRSA strains ([7]; relative to Cit 1.1, MRSA strains JE2 and ATCC 43300) [fold]
GLFDVI(Orn)(Orn)VASVIGGL [AMP-006]	> 32	> 32	> 32	> 32	32	> 32	32	> 32	–	–	–	–	–
GLFDVIRRVASVIGGL [AMP-012]	32	32	> 32	16	16	–	16	> 32	16	2	18.2	32	2
